For orientation: pEC50 means −log10 of the EC50, conventionally taken in molar units.

pEC50: −log10 of the molar value.

In US12528801B2 (Givaudan SA, priority 2019, dated 2026) one finds EC50 data, which are given here for 35 compounds.

This experiment addresses T1, hTRPM8 (Homo sapiens, UniProt Q7Z2W7).
T1 construct: expressed in transfected cells
Kind of experiment: Assay on TRPM8 modulators: calcium imaging (Fluo-4, Flexstation) in HEK293 cell line stably expressing hTRPM8. It counts as cell-based. The conditions noted are these: HEK293 cells stably expressing hTRPM8; calcium influx, Fluo-4, Flexstation 3; sigmoidal dose-response fit. As for the experimental part: A HEK293 cell line stably expressing hTRPM8 was generated according to Klein of at, (Chem. Senses 36: […], 2011) and receptor activation was monitored by calcium imaging in a Flexstation. For Ca-imaging assays of TRPM8 channel activation, cells were seeded on day 0 at a density of 12000 cells per well in Dulbecco's modified Eagle medium (DMEM) containing 9% foetal bovine serum in black, clear bottom 96-well plates that had been coated with 0.001% polyethyleneimine (molecular weight=60 000, Acros Organics). On day 2, agonists were evaluated via calcium imaging using Fluo-4. Briefly, growth medium was discarded, and the cells were incubated in the dark for 1 h at 37° C. in 50 μL loading buffer consisting of 2.7 μM Fluo-4 AM (Invitrogen) and […] probenecid (Sigma-Aldrich) in DMEM (without serum). After incubation, the plates were washed five times with 100 μL of assay buffer (in mM: 130 NaCl, 5 KCl, 10 HEPES, 2 CaCl2, and 10 glucose, pH7.4.) and further incubated in the dark at room temperature for 30 min. The cells were then washed five times with 100 μL assay buffer and then calcium influx to serial dilutions of inventive compounds were measured in a Flexstation 3 (Molecular Devices). Receptor activation was initiated following addition of 20 μl of a 10-fold concentrated ligand stock solution, which is also prepared in assay buffer. Fluorescence was continuously monitored for 15 seconds prior to ligand addition and for 105 seconds after ligand addition, for a total of 120 seconds. Maximal receptor activation in relation to solvent control and relative to 31.6 μM menthol is determined. Data from serial dilutions were processed with a KNIME workflow to fit a sigmoidal dose-response curve and to extrapolate […].

T1 sequence (Q7Z2W7 whole entry): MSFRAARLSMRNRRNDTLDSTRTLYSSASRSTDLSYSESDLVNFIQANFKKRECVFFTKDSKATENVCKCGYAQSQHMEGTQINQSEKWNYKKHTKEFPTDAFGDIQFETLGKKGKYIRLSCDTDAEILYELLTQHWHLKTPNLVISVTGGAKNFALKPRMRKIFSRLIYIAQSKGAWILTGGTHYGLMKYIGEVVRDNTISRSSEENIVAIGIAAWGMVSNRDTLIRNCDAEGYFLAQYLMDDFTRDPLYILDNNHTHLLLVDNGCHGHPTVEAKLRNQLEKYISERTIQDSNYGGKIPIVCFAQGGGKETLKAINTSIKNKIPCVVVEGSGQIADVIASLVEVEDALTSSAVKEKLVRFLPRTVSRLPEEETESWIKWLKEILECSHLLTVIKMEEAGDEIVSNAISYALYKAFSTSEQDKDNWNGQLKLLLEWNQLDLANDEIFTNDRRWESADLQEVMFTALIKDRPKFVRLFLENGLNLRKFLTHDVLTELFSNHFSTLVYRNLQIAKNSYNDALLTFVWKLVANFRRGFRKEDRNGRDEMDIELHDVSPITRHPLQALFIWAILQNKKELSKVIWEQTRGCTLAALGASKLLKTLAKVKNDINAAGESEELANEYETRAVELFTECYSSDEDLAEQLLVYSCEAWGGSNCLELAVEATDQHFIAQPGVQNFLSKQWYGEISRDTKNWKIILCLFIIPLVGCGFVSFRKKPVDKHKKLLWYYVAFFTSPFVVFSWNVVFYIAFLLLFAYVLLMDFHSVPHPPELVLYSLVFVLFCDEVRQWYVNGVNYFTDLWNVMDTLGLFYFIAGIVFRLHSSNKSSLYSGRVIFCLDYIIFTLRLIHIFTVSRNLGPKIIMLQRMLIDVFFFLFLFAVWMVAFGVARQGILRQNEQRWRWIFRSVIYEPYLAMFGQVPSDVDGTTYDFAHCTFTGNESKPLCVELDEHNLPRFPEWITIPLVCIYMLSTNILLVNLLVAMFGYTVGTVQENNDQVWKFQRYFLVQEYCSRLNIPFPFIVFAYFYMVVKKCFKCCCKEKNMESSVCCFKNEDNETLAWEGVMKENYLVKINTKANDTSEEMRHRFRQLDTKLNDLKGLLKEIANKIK

As for `CSC(C)C(=O)N1CCCCC1c1nc(-c2ccc(C3CCC3)cc2)c[nH]1` (centres unmarked) [Compound 36, 1-(2-(4-(4-cyclobutylphenyl)-1H-imidazol-2-yl)piperidin-1-yl)-2-(methylthio)propan-1-one], the negative logarithm of the EC50 (pEC50) was greater than 7.30. As for `CSC(C)C(=O)N1CCCCC1c1nc(-c2ccc(C3CC3)cc2F)c[nH]1` (centres unmarked) [Compound 37, 1-(2-(4-(4-cyclopropyl-2-fluorophenyl)-1H-imidazol-2-yl)piperidin-1-yl)-2-(methylthio)propan-1-one], the pEC50 was greater than 7.30. The figure for `CSC(C)C(=O)N1CCCCC1c1nc(-c2ccc(F)cc2)c[nH]1` (centres unmarked) [Compound 38, 1-(2-(4-(4-fluorophenyl)-1H-imidazol-2-yl)piperidin-1-yl)-2-(methylthio)propan-1-one] is greater than 7.30; for `CSC(C)C(=O)N1CCCCC1c1nc(-c2ccc(O)cc2)c[nH]1` (centres unmarked) [Compound 39, 1-(2-(4-(4-hydroxyphenyl)-1H-imidazol-2-yl)piperidin-1-yl)-2-(methylthio)propan-1-one] it is greater than 7.30; for `CSC(C)C(=O)N1CCCCC1c1nc(-c2ccc(C(C)C)cc2)c[nH]1` (centres unmarked) [Compound 40, 1-(2-(4-(4-isopropylphenyl)-1H-imidazol-2-yl)piperidin-1-yl)-2-(methylthio)propan-1-one] it is greater than 7.30. For the compound `CSC(C)C(=O)N1CCCCC1c1nc(-c2ccc(C)c(C(F)(F)F)c2)c[nH]1` (centres unmarked) [Compound 41, 1-(2-(4-(4-methyl-3-(trifluoromethyl)phenyl)-1H-imidazol-2-yl)piperidin-1-yl)-2-(methylthio)propan-1-one], the pEC50 was 6.52 to 7.30. `CSC(C)C(=O)N1CCCCC1c1nc(-c2ccc(CN(C)C)s2)c[nH]1` (centres unmarked) [Compound 42, 1-(2-(4-(5-((dimethylamino)methyl)thiophen-2-yl)-1H-imidazol-2-yl)piperidin-1-yl)-2-(methylthio)propan-1-one]: the negative-log EC50 (pEC50) is 4.46 to 6.00.

`CSC(C)C(=O)N1CCCCC1c1nc(-c2ccc(C)o2)c[nH]1` (centres unmarked) [Compound 43, 1-(2-(4-(5-methylfuran-2-yl)-1H-imidazol-2-yl)piperidin-1-yl)-2-(methylthio)propan-1-one]: the pEC50 was greater than 7.30. Take `CSC(C)C(=O)N1CCCCC1c1nc(-c2cncc(C)c2)c[nH]1` (centres unmarked) [Compound 44, 1-(2-(4-(5-methylpyridin-3-yl)-1H-imidazol-2-yl)piperidin-1-yl)-2-(methylthio)propan-1-one]: the pEC50 was 6.52 to 7.30. The figure for `CSC(C)C(=O)N1CCCCC1c1nc(-c2ccc(C)nc2)c[nH]1` (centres unmarked) [Compound 45, 1-(2-(4-(6-methylpyridin-3-yl)-1H-imidazol-2-yl)piperidin-1-yl)-2-(methylthio)propan-1-one] is greater than 7.30; for `CSC(C)C(=O)N1CCCCC1c1nc(-c2ccc3ccsc3c2)c[nH]1` (centres unmarked) [Compound 46, 1-(2-(4-(benzo[b]thiophen-6-yl)-1H-imidazol-2-yl)piperidin-1-yl)-2-(methylthio)propan-1-one] it is greater than 7.30; for `CSC(C)C(=O)N1CCCCC1c1nc(C)c(-c2ccccc2)[nH]1` (centres unmarked) [Compound 47, 1-(2-(4-methyl-5-phenyl-1H-imidazol-2-yl)piperidin-1-yl)-2-(methylthio)propan-1-one] it is 6.52 to 7.30. The result for `O=C(CSC(F)(F)F)N1CCCCC1c1nc(-c2ccccc2)c[nH]1` (centres unmarked) [Compound 48, 1-(2-(4-phenyl-1H-imidazol-2-yl)piperidin-1-yl)-2-((trifluoromethyl)thio)ethan-1-one] reads 4.46 to 6.00; that for `CCCC(=O)N1CCCCC1c1nc(-c2ccccc2)c[nH]1` (centres unmarked) [Compound 49, 1-(2-(4-phenyl-1H-imidazol-2-yl)piperidin-1-yl)butan-1-one], 6.00 to 6.52; that for `C=CC=CCC(=O)N1CCCCC1c1nc(-c2ccccc2)c[nH]1` (centres unmarked) [Compound 50, 1-(2-(4-phenyl-1H-imidazol-2-yl)piperidin-1-yl)hexa-3,5-dien-1-one], 4.46 to 6.00. The result for `C=CCCC(=O)N1CCCCC1c1nc(-c2ccccc2)c[nH]1` (centres unmarked) [Compound 51, 1-(2-(4-phenyl-1H-imidazol-2-yl)piperidin-1-yl)pent-4-en-1-one] reads 6.00 to 6.52; that for `CCC(=O)N1CCCCC1c1nc(-c2ccccc2)c[nH]1` (centres unmarked) [Compound 52, 1-(2-(4-phenyl-1H-imidazol-2-yl)piperidin-1-yl)propan-1-one], 4.46 to 6.00. For `CSC(C)C(=O)N1CCCCC1c1ncc(-c2cccc(F)c2F)[nH]1` (centres unmarked) [Compound 53, 1-(2-(5-(2,3-difluorophenyl)-1H-imidazol-2-yl)piperidin-1-yl)-2-(methylthio)propan-1-one], the pEC50 was 6.52 to 7.30. The result for `CSC(C)C(=O)N1CCCCC1c1ncc(-c2ccc(F)cc2F)[nH]1` (centres unmarked) [Compound 54, 1-(2-(5-(2,4-difluorophenyl)-1H-imidazol-2-yl)piperidin-1-yl)-2-(methylthio)propan-1-one] reads greater than 7.30; that for `CSC(C)C(=O)N1CCCCC1c1ncc(-c2cc(F)ccc2F)[nH]1` (centres unmarked) [Compound 55, 1-(2-(5-(2,5-difluorophenyl)-1H-imidazol-2-yl)piperidin-1-yl)-2-(methylthio)propan-1-one], greater than 7.30; that for `COc1ccc(-c2cnc(C3CCCCN3C(=O)C(C)SC)[nH]2)c(F)c1` (centres unmarked) [Compound 56, 1-(2-(5-(2-fluoro-4-methoxyphenyl)-1H-imidazol-2-yl)piperidin-1-yl)-2-(methylthio)propan-1-one], greater than 7.30. As for `CSC(C)C(=O)N1CCCCC1c1ncc(-c2ccc(C)cc2F)[nH]1` (centres unmarked) [Compound 57, 1-(2-(5-(2-fluoro-4-methylphenyl)-1H-imidazol-2-yl)piperidin-1-yl)-2-(methylthio)propan-1-one], the negative logarithm of the EC50 (pEC50) was greater than 7.30. Consider `COc1ncc(-c2cnc(C3CCCCN3C(=O)C(C)SC)[nH]2)cn1` (centres unmarked) [Compound 58, 1-(2-(5-(2-methoxypyrimidin-5-yl)-1H-imidazol-2-yl)piperidin-1-yl)-2-(methylthio)propan-1-one], for which the negative logarithm of the EC50 (pEC50) was 6.00 to 6.52.

Consider `CNc1cccc(-c2cnc(C3CCCCN3C(=O)C(C)SC)[nH]2)c1` (centres unmarked) [Compound 59, 1-(2-(5-(3-(methylamino)phenyl)-1H-imidazol-2-yl)piperidin-1-yl)-2-(methylthio)propan-1-one], for which the negative logarithm of the EC50 (pEC50) was 6.52 to 7.30. The result for `CSC(C)C(=O)N1CCCCC1c1ncc(-c2ccc(F)c(F)c2)[nH]1` (centres unmarked) [Compound 60, 1-(2-(5-(3,4-difluorophenyl)-1H-imidazol-2-yl)piperidin-1-yl)-2-(methylthio)propan-1-one] reads greater than 7.30; that for `C=CC(C)C(=O)N1CCCCC1c1ncc(-c2ccc(F)c(F)c2)[nH]1` (centres unmarked) [Compound 61, 1-(2-(5-(3,4-difluorophenyl)-1H-imidazol-2-yl)piperidin-1-yl)-2-methylbut-3-en-1-one], greater than 7.30. The result for `COc1ccc(-c2cnc(C3CCCCN3C(=O)C(C)SC)[nH]2)cc1OC` (centres unmarked) [Compound 62, 1-(2-(5-(3,4-dimethoxyphenyl)-1H-imidazol-2-yl)piperidin-1-yl)-2-(methylthio)propan-1-one] reads 4.46 to 6.00; that for `CSC(C)C(=O)N1CCCCC1c1ncc(-c2ccc(C)c(C)c2)[nH]1` (centres unmarked) [Compound 63, 1-(2-(5-(3,4-dimethylphenyl)-1H-imidazol-2-yl)piperidin-1-yl)-2-(methylthio)propan-1-one], greater than 7.30; that for `COCc1ccc(-c2cnc(C3CCCCN3C(=O)C(C)SC)[nH]2)cc1F` (centres unmarked) [Compound 64, 1-(2-(5-(3-fluoro-4-(methoxymethyl)phenyl)-1H-imidazol-2-yl)piperidin-1-yl)-2-(methylthio)propan-1-one], 6.52 to 7.30.

On to `CSC(C)C(=O)N1CCCCC1c1ncc(-c2ccc(C)c(F)c2)[nH]1` (centres unmarked) [Compound 65, 1-(2-(5-(3-fluoro-4-methylphenyl)-1H-imidazol-2-yl)piperidin-1-yl)-2-(methylthio)propan-1-one], for which the negative logarithm of the EC50 (pEC50) is greater than 7.30.

Regarding `CSC(C)C(=O)N1CCCCC1c1ncc(-c2cccc(F)c2)[nH]1` (centres unmarked) [Compound 66, 1-(2-(5-(3-fluorophenyl)-1H-imidazol-2-yl)piperidin-1-yl)-2-(methylthio)propan-1-one], the negative-log EC50 (pEC50) is greater than 7.30. The result for `COc1nscc1-c1cnc(C2CCCCN2C(=O)C(C)SC)[nH]1` (centres unmarked) [Compound 67, 1-(2-(5-(3-methoxyisothiazol-4-yl)-1H-imidazol-2-yl)piperidin-1-yl)-2-(methylthio)propan-1-one] reads 4.46 to 6.00. The result for `COc1cccc(-c2cnc(C3CCCCN3C(=O)C(C)SC)[nH]2)c1` (centres unmarked) [Compound 68, 1-(2-(5-(3-methoxyphenyl)-1H-imidazol-2-yl)piperidin-1-yl)-2-(methylthio)propan-1-one] reads 6.52 to 7.30; that for `CNCc1ccc(-c2cnc(C3CCCCN3C(=O)C(C)SC)[nH]2)cc1` (centres unmarked) [Compound 69, 1-(2-(5-(4-((methylamino)methyl)phenyl)-1H-imidazol-2-yl)piperidin-1-yl)-2-(methylthio)propan-1-one], 4.46 to 6.00; that for `COCCc1ccc(-c2cnc(C3CCCCN3C(=O)C(C)SC)[nH]2)cc1` (centres unmarked) [Compound 70, 1-(2-(5-(4-(2-methoxyethyl)phenyl)-1H-imidazol-2-yl)piperidin-1-yl)-2-(methylthio)propan-1-one], 6.52 to 7.30.
